# Measurements published in patent US20090010873A1, “Methods of Cell Therapy, Neurogenesis and Oligodendrogenesis” (YEDA RESEARCH AND DEVELOPMENT CO. LTD., priority 2004, published 2009).
# Test system: aNPCs
# Assay: Neuronal differentiation of aNPCs with CD4+ T cells, T cell-conditioned medium or cytokines
# Assay type: cell-based, mouse
# Conditions: aNPCs cultured 5 days with the cytokine
# Protocol: (xxxiii) Co-culturing of neural progenitor cells and T cells. CD4+ T cells were purified from lymph nodes of 8-week-old C57B16/J mice as previously described (Kipnis et al., 2004). T cells were activated in RPMI medium supplemented with L-glutamine (2 mM), 2-mercaptoethanol (5×10^−5 M), sodium pyruvate (1 mM), penicillin (100 IU/ml), streptomycin (100 μg/ml), nonessential amino acids (1 ml/100 ml), and autologous serum 2% (v/v) in the presence of mouse recombinant IL-2 (mrIL-2; 5 ng/ml) and soluble anti-CD28 and anti-CD3 antibodies (1 ng/ml). T cells were co-cultured (5×10^4 cells/well) with aNPCs (5×10^4 cells/well) for 5 d on cover slips coated with Matrigel (BD Biosciences) in 24-well plates. The cultures were then fixed with 2.5% paraformaldehyde in PBS for 30 min at room temperature and stained for neuronal markers.
# We therefore sought to determine whether direct interaction between aNPCs and T cells would also result in an altered pattern of aNPC differentiation. To address this question, we activated CD4+ T cells in vitro by a cognate protocol (with anti-CD3 antibodies, anti-CD28 antibodies, and IL-2) for 24 h and then allowed their activation to continue in co-cultures with aNPCs in a transwell culture system. […] After 5 days in culture the aNPCs in the lower chamber were fixed and analyzed for the appearance of newly formed neurons. […]
substance,measurement,value
IFN-γ,concentration (as low as) inducing an increase in β-III tubulin expression,1 ng/mL
